Measurements taken from ChEMBL document CHEMBL1201862, “PubChem BioAssay data set” (2004).
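Cells were grown in 96-well plates and exposed to each compound for 48 hours at five concentrations; endpoints were interpolated linearly between bracketing concentrations, or set to the highest concentration if not reached. The concentration for 50% growth inhibition is given as GI50.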 The source made the active and inactive calls. Rule as the data show it: active = GI50 up to about 1.1 µM and inactive = higher.

Tests used:
Test in all cases: NCI-60 cell line screen, 48 h
TK-10 = test system: TK-10
M14 = test system: M14
RXF 393 = test system: RXF 393
SF-268 = test system: SF-268
SK-MEL-5 = test system: SK-MEL-5
A498 = test system: A498
LXFL 529 = test system: LXFL 529
SW-620 = test system: SW-620
KM12 = test system: KM12
SK-OV-3 = test system: SK-OV-3
SK-MEL-2 = test system: SK-MEL-2
MOLT-4 = test system: MOLT-4
CCRF-CEM = test system: CCRF-CEM
K562 = test system: K562
RPMI-8226 = test system: RPMI-8226
MCF7 = test system: MCF7
PC-3 = test system: PC-3
MDA-N = test system: MDA-N
DU-145 = test system: DU-145
Hs-578T = test system: Hs-578T

Measured: GI50

O=C1/C(=C/c2ccccc2)CCCC/C1=C\c1ccccc1
inactive: TK-10 > 100 µM | M14 > 100 µM | RXF 393 27.2 µM | SF-268 88.9 µM | SK-MEL-5 24.1 µM | A498 > 100 µM | LXFL 529 55.2 µM | SW-620 58.5 µM | KM12 41.2 µM | SK-OV-3 > 100 µM | SK-MEL-2 47.9 µM | MOLT-4 27.7 µM

COC(=O)CC1NC(=O)[C@@H]1C(C)O (some centres not stated)
inactive: TK-10 > 100 µM | M14 > 100 µM | RXF 393 > 100 µM | SF-268 > 100 µM | SK-MEL-5 > 100 µM | CCRF-CEM > 100 µM | K562 > 100 µM | A498 > 100 µM | LXFL 529 > 100 µM | SW-620 > 100 µM | SK-MEL-2 > 100 µM | RPMI-8226 > 100 µM | MOLT-4 > 100 µM

Brc1c2nc3ccccc3nc2n2ccc3ccccc3c12
inactive: TK-10 > 100 µM | M14 > 100 µM | SF-268 > 100 µM | SK-MEL-5 > 100 µM | CCRF-CEM > 100 µM | K562 > 100 µM | LXFL 529 > 100 µM | SW-620 > 100 µM | KM12 > 100 µM | SK-OV-3 2.23 µM | SK-MEL-2 > 100 µM | RPMI-8226 > 100 µM | MOLT-4 > 100 µM

O=C(N/C(=C\c1cccc([N+](=O)[O-])c1)c1nc2c(O)nc(S)nc2[nH]1)c1ccccc1
inactive: M14 > 100 µM | RXF 393 45.5 µM | SF-268 48.2 µM | SK-MEL-5 > 100 µM | CCRF-CEM > 100 µM | K562 > 100 µM | A498 > 100 µM | LXFL 529 58.5 µM | SW-620 > 100 µM | KM12 > 100 µM | SK-OV-3 > 100 µM | SK-MEL-2 > 100 µM | RPMI-8226 97.1 µM | MOLT-4 94.4 µM

CN(C)CCNC(=O)Cn1ccc(=O)c2ccc([N+](=O)[O-])cc21
inactive: TK-10 > 100 µM | MCF7 > 100 µM | M14 > 100 µM | PC-3 > 100 µM | RXF 393 > 100 µM | SF-268 > 100 µM | SK-MEL-5 > 100 µM | MDA-N > 100 µM | CCRF-CEM > 100 µM | K562 > 100 µM | A498 > 100 µM | SW-620 > 100 µM | DU-145 > 100 µM | Hs-578T > 100 µM | KM12 > 100 µM | SK-OV-3 > 100 µM | SK-MEL-2 > 100 µM | RPMI-8226 > 100 µM | MOLT-4 > 100 µM

CCCCN(CCCC)C(=O)/C(CC(=O)c1cccc2ccccc12)=N\NC(=O)c1cc2ccccc2cc1O
inactive: TK-10 40.1 µM | M14 21.9 µM | RXF 393 24.8 µM | SF-268 11.2 µM | SK-MEL-5 13.5 µM | CCRF-CEM 3.94 µM | LXFL 529 27.3 µM | SW-620 32 µM | KM12 24.8 µM | SK-MEL-2 14.1 µM | RPMI-8226 3.52 µM | MOLT-4 7.83 µM

CCCOc1nc(N)c2cnn(C3CCCCO3)c2n1 (configuration not stated)
inactive: M14 > 100 µM | RXF 393 > 100 µM | SF-268 > 100 µM | SK-MEL-5 > 100 µM | CCRF-CEM > 100 µM | K562 > 100 µM | LXFL 529 > 100 µM | SW-620 > 100 µM | KM12 > 100 µM | SK-OV-3 > 100 µM | SK-MEL-2 > 100 µM | RPMI-8226 > 100 µM | MOLT-4 > 100 µM

O=C1C(=O)N(c2cc(Cl)ccc2Cl)C(=O)C(=O)C1c1nc2ccccc2s1
inactive: TK-10 > 100 µM | M14 > 100 µM | RXF 393 > 100 µM | SF-268 86.5 µM | SK-MEL-5 > 100 µM | CCRF-CEM 62.4 µM | K562 93.1 µM | A498 > 100 µM | LXFL 529 82.2 µM | SW-620 > 100 µM | KM12 > 100 µM | SK-OV-3 > 100 µM | SK-MEL-2 > 100 µM | RPMI-8226 > 100 µM

CC(C)(C)[Si](C)(C)O/N=C\c1cccc(O[Si](C)(C)C(C)(C)C)c1
inactive: TK-10 24.5 µM | M14 16 µM | RXF 393 19.6 µM | SF-268 18.3 µM | SK-MEL-5 17.8 µM | CCRF-CEM 19.3 µM | K562 18.1 µM | LXFL 529 15.7 µM | SW-620 18.5 µM | KM12 18 µM | SK-OV-3 21 µM | SK-MEL-2 17.9 µM | RPMI-8226 17 µM | MOLT-4 18.1 µM

COc1cc2c[n+](C)c3c4cc(OC)c(OC(C)C)cc4ccc3c2cc1OC
inactive: TK-10 > 100 µM | M14 84.9 µM | RXF 393 > 100 µM | SF-268 47 µM | SK-MEL-5 23.4 µM | CCRF-CEM 56.2 µM | K562 32.3 µM | LXFL 529 7.35 µM | SW-620 36.3 µM | KM12 29.8 µM | SK-OV-3 > 100 µM | SK-MEL-2 20.1 µM | RPMI-8226 36.2 µM | MOLT-4 50.5 µM

CC1(C)OC(=O)C(c2cccs2)C(=O)O1
inactive: TK-10 > 100 µM | M14 > 100 µM | RXF 393 > 100 µM | SF-268 > 100 µM | SK-MEL-5 > 100 µM | CCRF-CEM > 100 µM | K562 > 100 µM | LXFL 529 > 100 µM | SW-620 > 100 µM | KM12 > 100 µM | SK-OV-3 > 100 µM | SK-MEL-2 > 100 µM | RPMI-8226 > 100 µM | MOLT-4 > 100 µM

COC1[C@@H](OC(C)=O)[C@@H](NC(=O)C(Cl)(Cl)Cl)C(I)[C@@H](N2C(=O)c3ccccc3C2=O)[C@H]1OC (some centres not stated)
inactive: M14 > 100 µM | RXF 393 > 100 µM | SF-268 > 100 µM | SK-MEL-5 > 100 µM | CCRF-CEM > 100 µM | K562 > 100 µM | A498 48.6 µM | LXFL 529 > 100 µM | SW-620 > 100 µM | KM12 6.59 µM | RPMI-8226 > 100 µM | MOLT-4 > 100 µM

CN(c1n[n+]2c(-c3ccccc3)csc2s1)c1n[n+]2c(-c3ccccc3)csc2s1
inactive: TK-10 > 100 µM | M14 > 100 µM | RXF 393 > 100 µM | SF-268 > 100 µM | SK-MEL-5 89.5 µM | CCRF-CEM 68.9 µM | K562 42.8 µM | LXFL 529 87.3 µM | SW-620 > 100 µM | KM12 > 100 µM | SK-OV-3 > 100 µM | SK-MEL-2 > 100 µM | RPMI-8226 > 100 µM | MOLT-4 > 100 µM

COc1ccc(/C=C2\CCC(CCN(C)C)(C3=CCCC3)C2=O)cc1 (configuration not stated)
inactive: TK-10 16.7 µM | M14 15.1 µM | RXF 393 7.6 µM | SF-268 18.2 µM | SK-MEL-5 16.5 µM | CCRF-CEM 17.1 µM | K562 15.7 µM | A498 17.7 µM | LXFL 529 16.7 µM | SW-620 16.8 µM | KM12 18 µM | SK-MEL-2 17.6 µM | RPMI-8226 20.8 µM | MOLT-4 23.9 µM
